Measurements from patent US7419657B2, “Treatment of atherosclerotic disorders” (priority 2001, dated 2008).
“And” between values parts separate entries of the source, which are not always exact repeats. Equal values may be shown once. Where a name gives a salt, the structure may show the parent alone. Read-outs that look alike come from different tables or passages of the source.

Assays:
anti-Chlamydia abzymes [1] = assay type: biochemical, human; design: key to In-vitro Inhibition: + = inhibition; − = no inhibition
anti-Chlamydia abzymes [2] = assay: Abzyme activity in angina patients reporting aspirin intake (Example 10); assay type: in vivo, human; conditions: for abzyme activity, + aspirin: individuals
anti-Chlamydia abzymes [3] = assay: Anti-abzyme therapy trial in ischaemic heart disease: serum abzyme activity; assay type: in vivo, human
anti-Chlamydia abzymes [4] = assay: Serum abzyme activity in patients taking aspirin (Example 6); assay type: in vivo, human
Chlamydia = assay type: biochemical, Chlamydia pneumoniae or Chlamydia Psittaci
human plasma = assay: In vitro kaolin clotting of plasma with atheroma IgG abzymes; conditions: pH 6.2
[5] = 10 μM of each Me2+-binding agent
[6] = 10 μM of each Me2+-binding agent, control 24.3
[7] = patient F, Silent Myocardial Ischaemia

CC(C)(S)[C@@H](N)C(=O)O [Penicillamine]
In-vitro Inhibition (anti-Chlamydia abzymes [1]): +
Result (inhibition of anti-Chlamydia abzymes) (anti-Chlamydia abzymes [1]; [5]): Positive
Lipid oxidising activity of anti-Chlamydia abzymes (anti-Chlamydia abzymes [1]; [6]): 0 μM MDA/ml

Cc1c(C)c2c(c(C)c1O)CC[C@@](C)(CCC[C@H](C)CCC[C@H](C)CCCC(C)C)O2 [α-Tocopherol]
Lipid oxidising activity of anti-Chlamydia abzymes (anti-Chlamydia abzymes [1]; in DMSO, 1 μM, control 61): 15 μM MDA/ml
Lipid oxidising activity of anti-Chlamydia abzymes (anti-Chlamydia abzymes [1]; in DMSO, 10 μM, control 61): 0 μM MDA/ml

CC(=O)Oc1ccccc1C(=O)O [Aspirin, acetylsalicylic acid]
abzyme activity, + aspirin (anti-Chlamydia abzymes [2]; stable angina class I): 5 and 45 and 0 (3×) and 10
abzyme activity, + aspirin (anti-Chlamydia abzymes [2]; stable angina class II): 5 (4×) and 10 (2×) and 0 (4×) and 25 and 22.5 and 3.3 and 16.7 and 30
abzyme activity, + aspirin (anti-Chlamydia abzymes [2]; stable angina class III): 0 (3×) and 45 and 5 and 35 and 15 and 30 and 105 and 20
abzyme activity, + aspirin (anti-Chlamydia abzymes [2]; unstable angina (IV)): 130 and 70 and 0 and 37 and 90 and 100 and 180
individuals positive for abzymes, + aspirin (anti-Chlamydia abzymes [2]; stable angina class I, 1/6): 17%
abzyme activity, + aspirin, group mean (anti-Chlamydia abzymes [2]; stable angina class I, n = 6, without aspirin 30.0): 10.0
individuals positive for abzymes, + aspirin (anti-Chlamydia abzymes [2]; stable angina class II, 4/15): 27%
abzyme activity, + aspirin, group mean (anti-Chlamydia abzymes [2]; stable angina class II, n = 15, without aspirin 32.2): 9.2
individuals positive for abzymes, + aspirin (anti-Chlamydia abzymes [2]; stable angina class III, 6/10): 60%
abzyme activity, + aspirin, group mean (anti-Chlamydia abzymes [2]; stable angina class III, n = 10, without aspirin 56.0): 25.5
individuals positive for abzymes, + aspirin (anti-Chlamydia abzymes [2]; unstable angina (IV), 6/7): 86%
abzyme activity, + aspirin, group mean (anti-Chlamydia abzymes [2]; unstable angina (IV), n = 7, without aspirin 119): 86.7
Anti-Chlamydia abzyme activity, 60 days after the start of treatment (anti-Chlamydia abzymes [3]; Therapy Group D individual IHD patients, aspirin 250 mg daily, before 103, 253): 63 μM MDA/ml and 103 μM MDA/ml
Anti-Chlamydia abzyme activity, 60 days after the start of treatment (anti-Chlamydia abzymes [3]; Therapy Group D mean, before treatment 178): 83.2 μM MDA/ml
In-vitro Inhibition (anti-Chlamydia abzymes [1]): +
Result (inhibition of anti-Chlamydia abzymes) (anti-Chlamydia abzymes [1]; [5]): Positive
Lipid oxidising activity of anti-Chlamydia abzymes (anti-Chlamydia abzymes [1]; [6]): 6.2 μM MDA/ml
Level of activity of anti-Chlamydia abzymes, 7 days after starting to take 250 mg of aspirin daily (anti-Chlamydia abzymes [4]; individual patients with CHD, before aspirin 45, 100, 45): undetectably low level and 20 μM MDA/ml and 0 μM MDA/ml
inhibition of the abzyme activity (anti-Chlamydia abzymes [4]; one CHD patient, 250 mg aspirin daily, after a week): 5 fold
Level of activity of anti-Chlamydia abzymes, 7 days after re-starting to take 250 mg aspirin daily (anti-Chlamydia abzymes [4]; [7]): 20 μM MDA/ml
Level of activity of anti-Chlamydia abzymes, after stopping taking aspirin for 7 days (anti-Chlamydia abzymes [4]; [7]): 65 μM MDA/ml
Level of activity of anti-Chlamydia abzymes, aspirin intake 250 mg daily (anti-Chlamydia abzymes [4]; patient F, Silent Myocardial Ischaemia, regular intake): 10 μM MDA/ml

Igepal CA-630
development of lipid oxidation reaction (Chlamydia): completely abrogated
oxidation of the lipids in the bacteria by the extracted abzymes (Chlamydia): abolished

[N-]=[N+]=[N-].[Na+] [NaN1, sodium azide]
abzyme effect on the plasma clotting after pre-incubation of the abzymes with inhibitor (human plasma): reduction
In-vitro Inhibition (anti-Chlamydia abzymes [1]): +
Lipid oxidising activity of anti-Chlamydia abzymes (anti-Chlamydia abzymes [1]): 0 μM MDA/ml
Result (inhibition of anti-Chlamydia abzymes) (anti-Chlamydia abzymes [1]): Positive

O=[N+]([O-])OCC(CO[N+](=O)[O-])O[N+](=O)[O-] [Glyceryl Trinitrate]
Anti-Abzyme activity (anti-Chlamydia abzymes [1]; drug 4.4 μM, control 21.7): 0 μM MDA/ml
Anti-Abzyme activity (anti-Chlamydia abzymes [1]; drug 22 μM, control 21.7): 0 μM MDA/ml
Anti-Abzyme activity (anti-Chlamydia abzymes [1]; drug 44 μM, control 21.7): 0 μM MDA/ml
Anti-Abzyme activity (anti-Chlamydia abzymes [1]; drug 220 μM, control 21.7): 0 μM MDA/ml

Triton X-100
development of lipid oxidation reaction (Chlamydia): completely abrogated
oxidation of the lipids in the bacteria by the extracted abzymes (Chlamydia): abolished

CCC[C@@H]1C[C@@H](C(=O)N[C@@H]([C@H]2O[C@H](SC)[C@H](O)[C@@H](O)[C@H]2O)[C@@H](C)O)N(C)C1 [Lincomycin Hydrochloride]
Anti-Abzyme activity (anti-Chlamydia abzymes [1]; drug 6.5 μM, control 21.7): 28.5 μM MDA/ml
Anti-Abzyme activity (anti-Chlamydia abzymes [1]; drug 13 μM, control 21.7): 30.3 μM MDA/ml

C=O [formalin]
lipid oxidising reaction in the test system (Chlamydia): no lipid oxidising reaction

O=[N+]([O-])O[C@H]1CO[C@H]2[C@@H]1OC[C@H]2O[N+](=O)[O-] [Isosorbide Dinitrate]
Anti-Abzyme activity (anti-Chlamydia abzymes [1]; drug 42 μM, control 21.7): 0 μM MDA/ml
Anti-Abzyme activity (anti-Chlamydia abzymes [1]; drug 211 μM, control 21.7): 0 μM MDA/ml

CC(C)NCC(O)COc1cccc2ccccc12 (stereo not drawn) [Propranolol Hydrochloride]
Anti-Abzyme activity (anti-Chlamydia abzymes [1]; Hydrochloride): 21.3 μM MDA/ml and 18.3 μM MDA/ml
